# Assay results published in patent US9573972B2, “Nurotoxic sterol glycosides” (priority 2008, dated 2017).
# Entries after “also recorded” stand apart in the source; their conditions may differ.
# Columns and labels:
# [1] = test system: male CD-1 mice; experiment: Wire hang test, SG-fed mice; format: in vivo, mouse
# Text: Five-month old male CD-1 mice (30.1-35.7 g, 7.5 cm-8.8 cm) were purchased from Charles River (Wilmington, Mass.). Adult mice were chosen to mimic the mean age of onset of ALS-PDC (Kurland, L. T. (1988a) Trends Neurosci. 11, 51-4; Kurland, L. T., et al. (1994) Amyotrophic lateral sclerosis-parkinsonism-dementia complex on Guam: epidemiologic and etiological perspectives. 109-131). Thirty mice for the SG study were randomly divided into 2 groups (14 control and 16 experimental animals). All animals were housed singly in a virus-free barrier facility in a room maintained at 22° C. under a 12 hour light/dark cycle. The mice were provided ad libitum access to food and water.
# The synthetic SG was mixed with finely ground Purina Chow mouse pellets (Mouse Diet™, Purina) to create the experimental pellets with a SG content of 1000 μg per pellet. Dry materials were blended with a sterile silicon spatula. For every 5 g of standard feed, 2.5 mL of doubly-distilled water (dd)H2O was added and the dough was kneaded and round up into pellets. A single sterol glucoside containing pellet was placed in the feeding tray each morning before the addition of regular mouse chow (ad libitum). All experimental pellets were entirely consumed by the mice each day. Control mice were fed standard mouse chow pellets of identical weight with no additives. SG feeding was conducted daily for 15 weeks and mice were behaviorally monitored until sacrifice at 35 weeks (time point 1) or 52 weeks (time point 2).
# Wire hang: Neuromuscular strength was tested by the wire hang (or hanging wire) test (Wilson, J., et al. (2003d) Neuromolecular Med. 3, 105-18; Wilson, J. M., et al. (2004c) Neuroimage. 23, 336-43; Wilson, J. M., et al. (2005) Soc Neurosci. Abstr. online; Tabata, R. C., et al. (2008) Neuromolecular Med. 10, 24-39). Both balance and grip strength are required for a mouse to keep its body suspended (Crawley, 2000). […] The latency to fall off the wire (maximum 60 seconds) (Sango et al., 1996) was measured from the moment the wire apparatus was inverted (180°). […]
# [2] = test system: lipid deposits; experiment: Oil red O histochemistry of lipid deposits; format: in vivo, mouse
# Description: Tissue-mounted slides were processed to evaluate lipid distribution with light microscopy with a protocol adapted from Dr. Roy Ellis (IMVS Division of Pathology, The Queen Elizabeth Hospital, Woodville, South Australia). First, an oil red O stock solution was prepared 2 hours prior to execution of the histochemical procedures. The oil red O stock stain solution was made by mixing oil red O (0.5 g, Sigma-Aldrich, Oakville, ON, Canada) and isopropanol (100 mL, Fisher Scientific, Nepean, ON, Canada) over a 40° C. water bath. Immediately prior to beginning the oil red O histochemical procedures, the oil red O working solution was made by combining 20 mL of distilled water for every 30 mL of oil red O stock stain solution. […] Slide-mounted sections were rinsed in coplin jars for 15 minutes at RT in three changes of PBS. Sections were then rinsed at RT with 60% isopropanol for 5 minutes. The spinal cord sections were then stained with a freshly prepared working solution of oil red O for 20 minutes and then rinsed with 60% isopropanol. Nuclear counterstaining was achieved by staining the sections with haematoxylin (haematoxylin, 7211, Richard Allan Scientific, Kalamazoo, Mich., USA) for 1 minute. Finally, the sections were rinsed with distilled water, dried under a fume hood and cover-slipped with Entellen (Merck, Darmstadt, Germany).
# The numbers of immunoreactive somata or inclusions were counted across the ventral horn of the spinal cord, across brain hemispheres, or per dorsal or ventral root with the 40× objective lens in a 600 μm/600 μm area within region perimeters defined by a mouse brain atlas (2001). For each animal, eight cross-sections per spinal cord or brain region were studied. An average of both the right and left ventral horn for each of the eight cross sections was generated giving a final averaged number for each animal in each of the spinal cord areas. For quantification of the level of mitochondrial activity (cytochrome c oxidase labelling) in the lumbar spinal cord or tyrosine hydroxylase immunoreactivity in the substantia nigra pars compacta and striatal sections, images captured using the Motic B5 Professional Series 3.0 microscope (Motic Instruments Inc., Richmond, ON) and analyzed using Motic B5 Professional, Motic Images Advanced 3.0 (Motic Instruments Inc., Richmond, ON) were scanned into a TIFF format file and analysed using the NIH Image J 1.37 software to measure density levels of antibody labelling. Eight to 12 sections from each mouse per region of interest were included.
compound,measurement,setting,value
"CC[C@H](/C=C/[C@@H](C)[C@H]1CC[C@H]2[C@@H]3CC=C4C[C@@H](O[C@@H]5O[C@H](CO)[C@@H](O)[C@H](O)[C@H]5O)CC[C@]4(C)[C@H]3CC[C@]12C)C(C)C [SG, Stigmasterol β-D-Glucopyranoside]",Increase in the time between inversion of the apparatus and falling,"[1]; SG fed mice, control group showed an increase",did not
same,Wirehang,"[1]; SG-fed vs control, Time-point 2 (52 wk)",Wirehang* (*p < 0.05)
same,Wirehang performance,"[1]; SG-fed vs control, prior to 35 weeks",decline in performance
same,Lipid deposits DR over time,[2]; SG-fed over time (35 to 52 wk),"did not show time-dependent effects; also recorded: SG-fed DR over time: ns, p = 0.8062"
same,Lipid deposits Lsc over time,[2]; SG-fed over time (35 to 52 wk),"did not experience an accumulation of deposits over time; also recorded: SG-fed Lsc over time: ns, p = 0.4864"
same,Lipid deposits VR over time,[2]; SG-fed over time (35 to 52 wk),"did not show time-dependent effects; also recorded: SG-fed VR over time: ns, p = 0.5478"
same,Lipids in dorsal roots,"[2]; SG-fed vs control, 35 weeks",not significant
same,"Lipids in ventral spinal roots, change","[2]; SG-fed vs control, 35 weeks",+10%
same,Lipids in dorsal root,"[2]; SG-fed vs control, 52 weeks",statistically significant inter-group differences were not found
same,Lipids in ventral root,"[2]; SG-fed vs control, 52 weeks",statistically significant inter-group differences were not found
same,Number and size of lipid deposits,"[2]; lumbar spinal cord and ventral roots, SG-fed vs control",greater
